We go through 17 compounds from PubChem BioAssay AID330 (DTP/NCI, 2004).

For this assay, the system named is P388 leukemia ip, CD2F1 mice, survival T/C. Kind of assay: NCI In Vivo Anticancer Drug Screen. Data for tumor model P388 Leukemia (intraperitoneal) in CD2F1 (CDF1) mice. To be noted: endpoint: median survival time, higher = longer survival. The method in brief: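 Mice carrying the transplanted tumor received test compound or vehicle. Survival was recorded in each group, and the value is the treated-group measurement divided by that of the vehicle-treated control group.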

Where [1] appears, read: dose: 60.0 mg/kg/injection, schedule: Q01DX005 (ip), vehicle: saline with Tween-80.
Setting [2] is: dose: 120.0 mg/kg/injection, schedule: Q01DX005 (ip), vehicle: saline with Tween-80.
[3] abbreviates: dose: 240.0 mg/kg/injection, schedule: Q01DX005 (ip), vehicle: saline with Tween-80.
[4] abbreviates: dose: 12.5 mg/kg/injection, schedule: Q01DX005 (ip), vehicle: saline with Tween-80.
Where [5] appears, read: dose: 25.0 mg/kg/injection, schedule: Q01DX005 (ip), vehicle: saline with Tween-80.
Setting [6] is: dose: 50.0 mg/kg/injection, schedule: Q01DX005 (ip), vehicle: saline with Tween-80.
The mark [7] stands for this setting: dose: 100.0 mg/kg/injection, schedule: Q01DX005 (ip), vehicle: saline with Tween-80.
Where [8] appears, read: dose: 50.0 mg/kg/injection, schedule: Q01DX005 (ip), vehicle: Klucel (hydroxypropylcellulose) (HPC).
Setting [9] is: dose: 100.0 mg/kg/injection, schedule: Q01DX005 (ip), vehicle: Klucel (hydroxypropylcellulose) (HPC).
Where [10] appears, read: dose: 200.0 mg/kg/injection, schedule: Q01DX005 (ip), vehicle: Klucel (hydroxypropylcellulose) (HPC).

The structures appear in SMILES notation. Values joined by “and” are separate entries in the source; they are usually repeats but may differ in a detail not shown here. Equal entries are not always repeated. Inconclusive results and toxic doses are left out. Bridge positions count the residues as written; N and C are the ends. Peptide text beside a SMILES is read from it. I, II: the chains in the order shown.

As for `N/C(=N\O)c1c(Br)n(C2OC(CO)C(O)C2O)c2ncnc(N)c12` (centres undefined), the T/C reads like this: under setting [1], 109 % of control and 122 % of control; under setting [2], 120 % of control and 122 % of control; under setting [3], 116 % of control; (dose: 480.0 mg/kg/injection, schedule: Q01DX005 (ip), vehicle: saline with Tween-80) 114 % of control.
In the case of `Cc1[nH]c2cc(Br)c(Br)cc2c1/C=N/NC(N)=S`, the T/C is 100 % of control (dose: 50.0 mg/kg/injection, schedule: Q01DX001 (ip), vehicle: Klucel (hydroxypropylcellulose) (HPC)); 96 % of control (dose: 100.0 mg/kg/injection, schedule: Q01DX001 (ip), vehicle: Klucel (hydroxypropylcellulose) (HPC)); 92 % of control (dose: 200.0 mg/kg/injection, schedule: Q01DX001 (ip), vehicle: Klucel (hydroxypropylcellulose) (HPC)).
With `Cc1cccc2sc(NC(=O)Nc3cccc(F)c3)nc12`, the T/C is 93 % of control and 94 % of control under setting [4]; 100 % of control and 96 % of control under setting [5]; 94 % of control and 96 % of control under setting [6]; 104 % of control and 89 % of control under setting [7].
For `Nc1ncnc2nc(C3OC(CO)C(O)C3O)[nH]c12` (centres undefined), the T/C is 104 % of control under setting [1], 98 % of control under setting [2] and 95 % of control under setting [3].
For the compound `CNc1ccc(O)c2c1C(=O)c1ccccc1C2=O`, the T/C (dose: 25.0 mg/kg/injection, schedule: Q04DX002 (ip), vehicle: saline with Tween-80) was 93 % of control; the T/C (dose: 50.0 mg/kg/injection, schedule: Q04DX002 (ip), vehicle: saline with Tween-80) was 92 % of control; the T/C (dose: 100.0 mg/kg/injection, schedule: Q04DX002 (ip), vehicle: saline with Tween-80) is 101 % of control; the T/C (dose: 200.0 mg/kg/injection, schedule: Q04DX002 (ip), vehicle: saline with Tween-80) was 109 % of control.
As for `Cn1cccc1C(C=C(c1ccccc1)c1ccccc1)c1cccn1C`, the T/C by setting is: under setting [4], 113 % of control; under setting [5], 114 % of control; under setting [6], 104 % of control and 88 % of control.
Take `O=C(O)c1ccccc1N/N=C\c1cc(/C=N/Nc2ccccc2C(=O)O)nc2[nH]c(=O)ccc12`: the T/C by setting is: (dose: 100.0 mg/kg/injection, schedule: Q04DX002 (ip), vehicle: Klucel (hydroxypropylcellulose) (HPC)) 102 % of control; (dose: 200.0 mg/kg/injection, schedule: Q04DX002 (ip), vehicle: Klucel (hydroxypropylcellulose) (HPC)) 107 % of control; (dose: 400.0 mg/kg/injection, schedule: Q04DX002 (ip), vehicle: Klucel (hydroxypropylcellulose) (HPC)) 105 % of control.
Turning to `O=C(/C=C/c1ccc2c(c1)OCO2)c1ccccc(=O)c1O`, the T/C was 95 % of control (dose: 25.0 mg/kg/injection, schedule: Q01DX005 (ip), vehicle: Klucel (hydroxypropylcellulose) (HPC)); 100 % of control under setting [8]; 101 % of control under setting [9]; 118 % of control under setting [10].
`COc1c(OC)c(C2(O)C(=O)N(C)c3ccccc32)c(OC)c(OC)c1C1(O)C(=O)N(C)c2ccccc21` (centres undefined): the T/C runs as follows: under setting [1], 88 % of control; under setting [2], 87 % of control; under setting [3], 87 % of control.
As to `CCOC(=O)c1c(C)c2c(n1C)CCc1c-2nc(N)[nH]c1=O`, the T/C (dose: 50.0 mg/kg/injection, schedule: Q01DX009 (ip), vehicle: Klucel (hydroxypropylcellulose) (HPC)) is 97 % of control; the T/C (dose: 100.0 mg/kg/injection, schedule: Q01DX009 (ip), vehicle: Klucel (hydroxypropylcellulose) (HPC)) is 97 % of control; the T/C (dose: 200.0 mg/kg/injection, schedule: Q01DX009 (ip), vehicle: Klucel (hydroxypropylcellulose) (HPC)) is 88 % of control.
With `CCOC(=O)N(C)C(C)=O`, the T/C was 100 % of control (dose: 6.25 mg/kg/injection, schedule: Q01DX009 (ip), vehicle: saline with Tween-80); 97 % of control (dose: 12.5 mg/kg/injection, schedule: Q01DX009 (ip), vehicle: saline with Tween-80); 106 % of control (dose: 25.0 mg/kg/injection, schedule: Q01DX009 (ip), vehicle: saline with Tween-80); 104 % of control (dose: 50.0 mg/kg/injection, schedule: Q01DX009 (ip), vehicle: saline with Tween-80); 96 % of control (dose: 100.0 mg/kg/injection, schedule: Q01DX009 (ip), vehicle: saline with Tween-80); 103 % of control (dose: 200.0 mg/kg/injection, schedule: Q01DX009 (ip), vehicle: saline).
On to `CCC(c1ccc(OC)cc1)C(NCC(=O)N/N=C/c1c[nH]c2ccccc12)c1ccc(OC)cc1` (centres undefined), for which the T/C was 94 % of control (dose: 100.0 mg/kg/injection, schedule: Q01DX001 (ip), vehicle: saline with Tween-80) and 87 % of control (dose: 200.0 mg/kg/injection, schedule: Q01DX001 (ip), vehicle: saline with Tween-80).
With `COc1cc(C2c3cc4c(cc3[C@@H](OC3OC5CO[C@@H](C)OC5C(O)C3O)[C@H]3COC(=O)C23)OCO4)cc(OC)c1OC` (some centres undefined), the T/C (dose: 16.0 mg/kg/injection, schedule: Q01DX005 (ip), vehicle: saline) was 163 % of control; the T/C (dose: 32.0 mg/kg/injection, schedule: Q01DX005 (ip), vehicle: saline) was 166 % of control; the T/C (dose: 64.0 mg/kg/injection, schedule: Q01DX005 (ip), vehicle: saline) is 153 % of control.
For the compound `CC(C)C(NC(=O)C(N)CSSCC(N)C(=O)NC(C(=O)O)C(C)C)C(=O)O` (stereo not drawn) (I: H-Cys-Val-OH / II: H-Cys-Val-OH; disulfide I:1-II:1; configuration not given here), the T/C by setting is: under setting [8], 103 % of control; under setting [9], 103 % of control; under setting [10], 101 % of control.
As to `N#CCCSC(=S)C(C#N)C(=N)c1ccccc1` (centres undefined), the T/C is, setting by setting: (dose: 25.0 mg/kg/injection, schedule: Q04DX003 (ip), vehicle: Klucel (hydroxypropylcellulose) (HPC)) 108 % of control; (dose: 50.0 mg/kg/injection, schedule: Q04DX003 (ip), vehicle: Klucel (hydroxypropylcellulose) (HPC)) 110 % of control; (dose: 100.0 mg/kg/injection, schedule: Q04DX003 (ip), vehicle: Klucel (hydroxypropylcellulose) (HPC)) 104 % of control and 92 % of control; (dose: 200.0 mg/kg/injection, schedule: Q04DX003 (ip), vehicle: Klucel (hydroxypropylcellulose) (HPC)) 92 % of control; (dose: 400.0 mg/kg/injection, schedule: Q04DX003 (ip), vehicle: Klucel (hydroxypropylcellulose) (HPC)) 96 % of control.
As to `CCN(CC)CCSCCN(CC)CC`, the T/C reads like this: under setting [5], 98 % of control; under setting [6], 110 % of control; under setting [7], 98 % of control.
Regarding `C=C1C(=O)OC(CCCCCCCCCCCCC)C1C(=O)O` (centres undefined), the T/C is, setting by setting: (dose: 0.25 mg/kg/injection, schedule: Q01DX009 (ip), vehicle: saline with Tween-80) 99 % of control; (dose: 0.5 mg/kg/injection, schedule: Q01DX009 (ip), vehicle: saline with Tween-80) 101 % of control; (dose: 1.0 mg/kg/injection, schedule: Q01DX009 (ip), vehicle: saline with Tween-80) 100 % of control.
